Tests used:
Experiment in all cases: relative viability (nuclei count vs DMSO), 5 days (fraction); higher = more cells survive
XMD14-99 + OSI-027 = compound: CN1CCN(CC1)C2=CC(=C(C=C2)NC3=NC(=C(S3)C(=O)C4=C(C=CC=C4Cl)Cl)N)OC [XMD14-99] + COc1cccc2cc(-c3nc([C@H]4CC[C@H](C(=O)O)CC4)n4ncnc(N)c34)[nH]c12 [OSI-027] (partner 0.5 µM)
Method in brief: (§1)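 The day after seeding in 1536-well plates, lung cancer cell lines were treated by pin tool with a single drug, or with a fixed anchor-drug dose together with five library-drug doses (not always all listed) in √10 steps. After 5 days, a combined fix-and-stain solution (final 0.05% Triton X-100, 1% formaldehyde, 1 ug/ml Hoechst) was added. Nuclei counted on 4× images gave relative viability as treated counts over vehicle counts, reported as the median of duplicate plates.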

AZD1208 + Luminespib = compound: N[C@@H]1CCCN(c2c(/C=C3\SC(=O)NC3=O)cccc2-c2ccccc2)C1 [AZD1208] + CCNC(=O)c1noc(-c2cc(C(C)C)c(O)cc2O)c1-c1ccc(CN2CCOCC2)cc1 [Luminespib] (partner 0.01 µM)
Method in brief: as §1

AZD1208 + Lapatinib = compound: N[C@@H]1CCCN(c2c(/C=C3\SC(=O)NC3=O)cccc2-c2ccccc2)C1 [AZD1208] + CS(=O)(=O)CCNCc1ccc(-c2ccc3ncnc(Nc4ccc(OCc5cccc(F)c5)c(Cl)c4)c3c2)o1 [Lapatinib] (partner 2 µM)
Method in brief: as §1

AZD1208 + AZD7762 = compound: N[C@@H]1CCCN(c2c(/C=C3\SC(=O)NC3=O)cccc2-c2ccccc2)C1 [AZD1208] + NC(=O)Nc1cc(-c2cccc(F)c2)sc1C(=O)N[C@H]1CCCNC1 [AZD7762] (partner 0.2 µM)
Method in brief: as §1

Row | Cell Line | relative viability (XMD14-99 + OSI-027; first compound 0.08 µM) | relative viability (XMD14-99 + OSI-027; first compound 0.8 µM) | relative viability (XMD14-99 + OSI-027; first compound 2.53 µM) | relative viability (XMD14-99 + OSI-027; first compound 8 µM) | relative viability (AZD1208 + Luminespib; first compound 0.08 µM) | relative viability (AZD1208 + Luminespib; first compound 0.253 µM) | relative viability (AZD1208 + Luminespib; first compound 0.8 µM) | relative viability (AZD1208 + Luminespib; first compound 2.53 µM) | relative viability (AZD1208 + Luminespib; first compound 8 µM) | relative viability (AZD1208 + Lapatinib; first compound 0.08 µM) | relative viability (AZD1208 + Lapatinib; first compound 0.253 µM) | relative viability (AZD1208 + Lapatinib; first compound 0.8 µM) | relative viability (AZD1208 + Lapatinib; first compound 2.53 µM) | relative viability (AZD1208 + Lapatinib; first compound 8 µM) | relative viability (AZD1208 + AZD7762; first compound 0.08 µM) | relative viability (AZD1208 + AZD7762; first compound 0.253 µM) | relative viability (AZD1208 + AZD7762; first compound 0.8 µM) | relative viability (AZD1208 + AZD7762; first compound 2.53 µM) | relative viability (AZD1208 + AZD7762; first compound 8 µM)
1 | 201T | 0.748 | 0.729 | 0.828 | 0.494 | 1.07 | 1.02 | 0.961 | 1.12 | 0.98 | 1.03 | 0.992 | 1.04 | 1.08 | 0.913 | 0.669 | 0.654 | 0.565 | 0.693 | 0.511
2 | A549 |  |  |  |  |  |  |  |  |  | 0.899 | 0.921 | 0.859 | 0.828 | 0.721 |  |  |  |  | 
3 | A-427 | 0.457 | 0.421 | 0.401 | 0.311 | 0.788 | 1 | 0.829 | 0.762 | 0.712 | 1.11 | 0.988 | 0.843 | 1.15 | 0.815 | 0.7 | 0.789 | 0.665 | 0.653 | 0.689
4 | ABC-1 | 0.431 | 0.551 | 0.382 | 0.291 | 0.564 | 0.632 | 0.415 | 0.383 | 0.632 | 1.14 | 0.904 | 1.05 | 1.09 | 1.06 | 0.905 | 0.728 | 0.785 | 0.884 | 1.35
5 | BEN | 0.29 | 0.295 | 0.312 | 0.264 | 0.254 | 0.271 | 0.285 | 0.244 | 0.303 | 0.677 | 0.449 | 0.524 | 0.568 | 0.437 | 0.749 | 0.578 | 0.562 | 0.503 | 0.478
6 | CAL-12T | 0.492 | 0.68 | 0.747 | 0.377 | 0.363 | 0.527 | 0.185 | 0.434 | 0.258 | 0.634 | 0.771 | 0.6 | 0.695 | 0.588 | 0.621 | 0.624 | 0.621 | 0.596 | 0.905
7 | COR-L23 | 0.796 | 0.724 | 0.561 | 0.406 | 0.585 | 0.749 | 0.529 | 0.721 | 0.508 | 0.991 | 1.18 | 0.942 | 1.02 | 0.916 |  |  |  |  | 
8 | COR-L 105 | 0.701 | 0.646 | 0.647 | 0.409 | 0.728 | 0.781 | 0.826 |  | 0.855 | 0.366 | 0.334 | 0.299 | 0.29 | 0.36 |  |  |  |  | 
9 | Calu-6 |  |  |  |  |  |  |  |  |  | 1.04 | 1.19 | 1.04 | 1.08 | 1.03 |  |  |  |  | 
10 | ChaGo-K-1 | 0.554 | 0.658 | 0.612 | 0.472 | 0.676 | 0.655 | 0.596 | 0.528 | 0.392 |  |  |  |  |  | 0.849 | 0.931 | 0.813 | 0.952 | 0.776
11 | EBC-1 |  |  |  |  |  |  |  |  |  | 0.195 | 0.249 | 0.193 | 0.218 | 0.2 |  |  |  |  | 
12 | EKVX | 0.653 | 0.72 | 0.655 | 0.586 | 0.981 | 0.845 | 0.888 | 0.804 | 0.924 | 0.194 | 0.191 | 0.194 | 0.168 | 0.176 | 0.76 | 0.801 | 0.674 | 0.719 | 0.606
13 | EMC-BAC-2 | 0.362 | 0.384 | 0.313 | 0.292 | 1.12 | 1.2 | 1.13 | 1.11 | 0.812 | 0.827 | 0.889 | 0.783 | 0.835 | 0.723 | 1.21 | 1.13 | 0.866 | 1.03 | 0.875
14 | EPLC-272H | 0.311 | 0.32 | 0.282 | 0.263 | 0.276 | 0.557 | 0.288 | 0.219 | 0.215 | 0.987 | 0.866 | 0.841 | 0.825 | 0.717 | 0.276 | 0.339 | 0.205 | 0.189 | 0.271
15 | H3255 | 0.548 | 0.57 | 0.535 | 0.487 | 0.872 | 0.982 | 0.698 | 0.901 | 0.842 | 0.258 | 0.231 | 0.225 | 0.219 | 0.22 | 1.01 | 0.992 | 0.898 | 0.912 | 0.845
16 | HARA | 0.46 | 0.426 | 0.321 | 0.182 | 0.558 | 1.1 | 0.0617 | 0.81 | 0.777 | 0.727 | 0.61 | 0.686 | 0.737 | 0.594 | 0.36 | 0.468 | 0.373 | 0.557 | 0.44
17 | HCC-15 | 0.606 | 0.622 | 0.638 | 0.463 | 0.359 | 0.235 | 0.319 | 0.431 | 0.192 | 0.871 | 0.858 | 0.874 | 0.858 | 0.831 | 1.19 | 1.26 | 1.03 | 1.43 | 1.19
18 | HCC-44 | 0.46 | 0.493 | 0.421 | 0.469 | 0.996 | 1.1 | 0.963 | 1.04 | 1.04 | 1.01 | 0.987 | 1.06 | 0.999 | 0.947 | 1.01 | 1.05 | 1.03 | 1.07 | 1.08
19 | HCC-78 | 0.389 | 0.339 | 0.377 | 0.319 |  |  |  |  |  | 0.779 | 0.888 | 0.621 | 0.845 | 0.966 | 0.737 | 0.758 | 0.643 | 0.739 | 0.793
20 | HCC-366 | 0.855 | 1.05 | 0.82 | 0.608 |  |  |  |  |  | 1.06 | 1.17 | 0.951 | 1.13 | 0.933 | 0.368 | 0.362 | 0.371 | 0.41 | 0.387
